# Assay results: ChEMBL document CHEMBL1921695, “Cembranolides from the leaves of Croton gratissimus” (J Nat Prod, 2011)
# System: Plasmodium falciparum
# Assay: Antiplasmodial activity against chloroquine-sensitive Plasmodium falciparum D10 infected in human erythrocytes after 3 to 4 days by lactate dehydrogenase assay
# Format: functional, organism-based
row,IC50 [µg/mL],Compound
1,13.5,C=C1C[C@@H]2C=C(CC[C@](O)(C(C)C)/C=C/[C@@](C)(O)CC[C@H]1OC(C)=O)C(=O)O2 (relative stereo)
2,20.8,C/C1=C\CC[C@](C)(O)/C=C/[C@@H](C(C)C)CCC2=C[C@@H](C1)OC2=O (relative stereo)
